Data from PubChem BioAssay AID1996.
In brackets after ≈: the same amount, converted by molar mass.

Conditions: buffer; pH 7.4; 200.0 µM

| SMILES | solubility kinetic [mg/mL] |
| --- | --- |
| Cc1noc(C)c1CSCC(=O)Nc1cccc(C(F)(F)F)c1 | > 0.0517 |
| CC(NC(=O)CN(c1ccc(Br)cc1)S(C)(=O)=O)c1ccccc1 (stereo not given) | > 0.0617 |
| Cc1ccc(S(=O)(=O)Nc2cccnc2)cc1C | 0.0107 (≈ 40.8 µM) |
| O=S(=O)(Nc1cccc(S(=O)(=O)N2CCCCCC2)c1)c1ccc(F)cc1F | > 0.0646 |
| COc1ccc(NC(=O)c2cc(-c3ccccc3)on2)cc1 | < 0.0003 |
| CC(=O)c1cccc(NC(=O)CN(C)S(=O)(=O)c2ccccc2)c1 | > 0.052 |
| CC(C)(C)c1ccc(SCCc2ccccn2)cc1 | 0.0011 (≈ 4.05 µM) |
| O=S(=O)(c1ccc(=S)[nH]c1)N1CCCC1 | > 0.0366 |
| CC1CCc2sc(C(=O)OCC(=O)NC(N)=O)cc2C1 (stereo not given) | 0.002 (≈ 6.75 µM) |
| Cc1cccc2cc3ccccc3nc12 | < 0.0004 |
| Cc1ccnc(SCC(=O)Nc2cccc(S(=O)(=O)N3CCOCC3)c2)n1 | > 0.0613 |
| Cn1c(=S)n(C)c2ccccc21 | > 0.0267 |
| CNCCCC12CCC(c3ccccc31)c1ccccc12 | 0.0386 (≈ 139 µM) |
| CCOc1ccccc1CNC(=O)CNC(=O)c1cccs1 | > 0.0478 |
| CSc1nsc(NC(=O)Nc2ccccc2)n1 | 0.0212 (≈ 79.6 µM) |
| Cc1cc2oc(=O)cc(CN3CCCCC3C)c2cc1C (stereo not given) | 0.0179 (≈ 62.7 µM) |
| O=C(NCc1ccco1)c1ccc(Cl)cc1[N+](=O)[O-] | > 0.0421 |
| Cc1cnc(C(=O)OCC(=O)c2ccc(C)s2)cn1 | 0.0411 (≈ 149 µM) |
| CCC(OC(=O)C1=Cc2ccccc2OC1)C(=O)NCc1ccco1 (stereo not given) | 0.0031 (≈ 9.08 µM) |
| CCc1cccc(NC(=O)C(NC(=O)C2CCCCC2)C(C)C)c1 (stereo not given) | 0.0006 (≈ 1.82 µM) |

| SMILES | solubility kinetic [mg/mL] |
| --- | --- |
| O=C(O)c1cc(-c2ccco2)nc2cc3ccccc3cc12 | > 0.0434 |
| COc1ccc(CCNC(=O)COC(=O)/C=C/c2ccc(OC)cc2OC)cc1 | 0.0051 (≈ 12.8 µM) |
| Cc1cccc(N(Cc2cc3ccccc3[nH]c2=O)C(=O)c2cccs2)c1 | < 0.0004 |
| CCC1NC(=O)c2ccccc2N1c1cccc(Cl)c1 (stereo not given) | 0.0298 (≈ 104 µM) |
| COc1ccc(Cc2cnc(N)s2)cc1 | 0.0318 (≈ 144 µM) |
| CCCCc1nc(NCCO)c(C#N)c2c1CCCC2 | 0.0036 (≈ 13.2 µM) |
| CC(=O)Nc1ccc(C(=O)CN2C(=O)NC3(CCCCCC3)C2=O)c(F)c1 | 0.0339 (≈ 90.3 µM) |
| CCCCNC(=S)Nc1ccc(Oc2ccccc2)cc1 | 0.0065 (≈ 21.6 µM) |
| Cc1ccc(Nc2nc(-c3cccnc3)cs2)cc1C | 0.0004 (≈ 1.42 µM) |
| CC1CC(C)CN(S(=O)(=O)c2ccc(C(C)(C)C)cc2)C1 (stereo not given) | < 0.0007 |
| O=C(CSc1ccccc1)Nc1ccc2sccc2c1 | 0.0007 (≈ 2.34 µM) |
| O=C(/C=C/c1ccc(Br)cc1)NCCCn1ccnc1 | 0.0442 (≈ 132 µM) |
| COc1ccc(NC(=S)Nc2ccccc2)c(OC)c1 | > 0.0433 |
| CC(C)CC(C(=O)N1CCOCC1)N1Cc2ccccc2C1=O (stereo not given) | 0.0473 (≈ 149 µM) |
| CC(OCCN(C)C)C(=O)C12CC3CC(CC(C3)C1)C2.Cl (stereo not given) | 0.0468 |
| O=C(O)CCn1c(SCCOc2ccccc2F)nc2ccccc21 | > 0.0541 |
| CCOc1ccc(OCC)c(S(=O)(=O)NCc2ccccc2)c1 | 0.0407 (≈ 121 µM) |
| O=C(NCc1ccccc1)c1cnc(Cl)c(Cl)c1 | 0.0359 (≈ 128 µM) |
| COc1ccccc1C1CCN(C(=O)C2CCCCC2)CC1 | 0.0386 (≈ 128 µM) |
| O=C(Nc1ccc(N2CCOCC2)c(S(=O)(=O)Nc2ccccc2Cl)c1)c1ccc(F)cc1 | 0.001 (≈ 2.04 µM) |

| SMILES | solubility kinetic [mg/mL] |
| --- | --- |
| OC(CNCc1ccccc1C(F)(F)F)C(F)(F)F (stereo not given) | > 0.0431 |
| COc1ccc(CCC(=O)NCc2cn3ccccc3n2)cc1 | > 0.0464 |
| CC(OC(=O)/C=C/c1cccs1)C(=O)NC1CCCCC1C (stereo not given) | 0.0049 (≈ 15.2 µM) |
| Cc1ccc(CSc2nc3ccccc3c(=O)n2C)cc1 | < 0.0003 |
| CC(C)(C)C(=O)OCc1nc(-c2ccc(O)c(O)c2)cs1 | 0.0395 (≈ 129 µM) |
| CC(OC(=O)c1cnc2ccccc2n1)c1ccccc1Cl (stereo not given) | 0.0148 (≈ 47.3 µM) |
| Cc1ccc(NC(=O)CCOc2ccccc2)cc1 | 0.0117 (≈ 45.8 µM) |
| CCS(=O)(=O)N1CCN=C1SCc1ccccc1 | > 0.0427 |
| CN(Cc1ccccc1Cl)C(=O)CNC(=O)C12CC3CC(CC(C3)C1)C2 | > 0.0562 |
| Cc1noc(C)c1COc1ccc2ccc(=O)oc2c1 | 0.0115 (≈ 42.4 µM) |
| O=c1[nH]c(O)c(C=Nc2ccc(Cl)c(C(F)(F)F)c2)c(=O)[nH]1 | 0.0017 (≈ 5.1 µM) |
| c1ccc2nc3c(nc2c1)CCCC3 | > 0.0276 |
| Cc1ccc2c(c1)N(C(C)C(=O)NCc1ccccn1)C(=O)CO2 (stereo not given) | > 0.0488 |
| CC(C)(CNC(=O)Cc1ccc(Cl)cc1Cl)N1CCCCC1 | > 0.0515 |
| O=C(NCc1cccnc1)c1ccccc1NC(=O)c1c(F)cccc1F | > 0.0551 |
| CC(=O)N/C(=C\c1ccc(Cl)cc1)C(=O)O | 0.0347 (≈ 145 µM) |
| Nc1ccc(Oc2ccc(F)cc2)nc1 | 0.0276 (≈ 135 µM) |
| Cc1ccc(C(=O)N2CC=C(c3ccccc3)CC2)o1 | 0.0391 (≈ 146 µM) |
| O=C(CSc1nc2ncccc2[nH]1)c1ccc2c(c1)OCO2 | 0.0007 (≈ 2.23 µM) |
| COC(=O)c1ccc2c(=O)n(-c3ccc(OC)cc3)c(=S)[nH]c2c1 | 0.0015 (≈ 4.38 µM) |
